Experimental data as given in US8911995B2, “Culture system and method for immunogenicity and immunofunction testing in vitro” (ProBioGen AG, priority 2007, dated 2014).

Tested on: human PBMC
Assay: Cytokine profile of matrix-embedded, perfused PBMC cultures in device 1 (multiplex bead array)
Format: cell-based
Procedure: Cryopreserved human PBMC, isolated from whole blood by ficoll density gradient centrifugation, were revitalised using standard protocols. The cell concentration was adjusted to 3 E8 viable cells per mL in X-Vivo 15 cell culture media (Lonza, Basel, Switzerland) supplemented with 5 mg/mL agarose type VII (made from 50 mg/mL 37° C. liquid solution, Sigma-Aldrich, St. Louis, Mo.), 2.5 μg/mL fibronectin (human, Sigma-Aldrich, St. Louis, Mo.) and 1× penicillin/streptomycin solution (100×, Invitrogen, Carlsbad, Calif.).
The device was made of a 1 mm PC plate housing the culture compartment, feeding and draining canals (see FIGS. 1 and 1A). The plate was covered with a 1 mm PC plate on top were the luer connectors were attached and a gas permeable membrane (Biofoil25, Greiner bio-one, Kremsmünster, Germany) at the bottom of the plate for optimal gas supply of the culture. The culture compartment of this special embodiment of device 1 has a volume of 160 μL. The device was incubated in a humidified incubator (37° C./5% carbon dioxide).
Three culture compartments of the device, further illustrated in FIG. 1A, were filled with cell suspension in liquid agarose media avoiding air bubbles (4,8 E7 viable PBMC/compartment). The whole culture device was cooled down to 4° C. for 5 min in order to let the matrix gel. Subsequently the surrounding fluidic system was prefilled with X-Vivo 15 cell culture media and was applied to the luer connectors of the culture device. A flow rate of 13.1 μL/h was set up using a peristaltic media pump.
Samples were taken every day and immediately frozen down to −20° C. for subsequent cytokine analyses using multiplex bead array technology (Luminex, Austin, Tex.).
After the second sample was taken 24 hours after innoculation, 100 μL OKT-3 antibody (100 ng/mL solution in X-Vivo 15, Ortho Biotech, Bridgewater, N.J.) were administered via an injection site in the fluidic system. 5 days after inoculation the last sample was taken and viability of the cultures was checked with acridine orange (1 μg/mL, Sigma, St. Louis, […].) and ethidium bromide (4 μg/mL, Sigma, St. Louis, […].).
The experiment was conducted as described in example 1. PBMCs were derived from a differed donor and cells were subsequently cultured in RPMI 1640 (Invitrogen, Carlsbad, Calif.) supplemented with 10% FCS (Biochrom, Berlin, Germany) and 1× penicillin/streptomycin solution (100×, Invitrogen, Carlsbad, Calif.). As described previously, the culture compartment of culture device 1 (see FIGS. 1 and 1A) was filled with liquid agarose-media (RPMI 1640 10% FCS cell culture media supplemented with 5 mg/mL agarose type VII (from 50 mg/mL 37° C. liquid solution, Sigma-Aldrich, St. Louis, Mo.), 2.5 μg/mL fibronectin (human, Sigma-Aldrich, St. Louis, Mo.) and 1× penicillin/streptomycin solution (100×, Invitrogen, Carlsbad, Calif.) and cells (4,8 E7 PBMC/compartment). After pre-incubation for 24 hours with a constant perfusion rate of 13.1 μL culture media, 100 μL of a 100 ng/mL OKT-3 solution was administered. Samples were taken every 24 hours and frozen down to −20° C. before the cytokine levels were determined.

[1] = Example 1, X-Vivo 15 medium, 100 μL of 100 ng/mL OKT-3
[2] = Example 2, different donor, RPMI 1640 10% FCS, 100 μL of 100 ng/mL OKT-3

Question: How did the IFN-gamma release [1] turn out when Muromonab-CD3 [OKT-3] was run?
Answer: released

Question: And the IL-5 level [1]?
Answer: raises initially

Question: And the TNF-alpha release [1]?
Answer: released

Question: What about the IL-2 release (Example 1, X-Vivo 15 medium, 24 hours after administration of 100 μL of 100 ng/mL OKT-3) of the same substance?
Answer: massive IL-2 burst

Question: And the “IL-2 level after the initial burst” value (Example 1, X-Vivo 15 medium, after 72 hours)?
Answer: declined

Question: What about the IFN-gamma level [2] of the same substance?
Answer: only raise slightly

Question: And the IL-2 release [2]?
Answer: massive IL-2 release

Question: And the IL-5 level [2]?
Answer: raises initially

Question: What about the TNF-alpha level [2] of the same substance?
Answer: only raise slightly
